ChEMBL document CHEMBL1201862, “PubChem BioAssay data set” (2004)
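Assay format: 96-well plates, 48-hour exposure. GI50 = concentration required for 50% inhibition of growth.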 The source made the active and inactive calls. Rule as the data show it: active = GI50 up to about 1.1 µM and inactive = higher.

What was measured:
Test in all cases: inhibition of tumour cell growth, NCI panel, 48 h
CCRF-CEM = system: CCRF-CEM
RXF 393 = system: RXF 393
NCI/ADR-RES = system: NCI/ADR-RES
SF-539 = system: SF-539
T47D = system: T47D
SF-268 = system: SF-268
DU-145 = system: DU-145
IGROV-1 = system: IGROV-1
ACHN = system: ACHN
NCI-H226 = system: NCI-H226
SR = system: SR
TK-10 = system: TK-10
MCF7 = system: MCF7
SN12C = system: SN12C
HL-60 = system: HL-60
MDA-MB-435 = system: MDA-MB-435
SK-MEL-2 = system: SK-MEL-2
K562 = system: K562
786-0 = system: 786-0
A498 = system: A498

## C[C@]12CC[C@H](O)C=C1CC[C@@H]1[C@@H]2CC[C@]2(C)C(=N/O)/C(=C/c3ccncc3)C[C@@H]12
CCRF-CEM
  GI50: 7.96 µM (inactive)
RXF 393
  GI50: 5.87 µM (inactive)
NCI/ADR-RES
  GI50: 17.5 µM (inactive)
SF-539
  GI50: 5.53 µM (inactive)
T47D
  GI50: 5.38 µM (inactive)
SF-268
  GI50: 15.2 µM (inactive)
DU-145
  GI50: 6.34 µM (inactive)
IGROV-1
  GI50: 14.8 µM (inactive)
ACHN
  GI50: 8.43 µM (inactive)
NCI-H226
  GI50: 10.2 µM (inactive)
SR
  GI50: 3.4 µM (inactive)
TK-10
  GI50: 12.4 µM (inactive)
MCF7
  GI50: 3.87 µM (inactive)
SN12C
  GI50: 12.1 µM (inactive)
HL-60
  GI50: < 0.01 µM (active)
MDA-MB-435
  GI50: 11.1 µM (inactive)
SK-MEL-2
  GI50: 10.3 µM (inactive)
K562
  GI50: 5.13 µM (inactive)
786-0
  GI50: 12.9 µM (inactive)

## COC(=O)C(C)(C)[C@@H]1OC(=O)N(S(=O)(=O)c2c(C)cc(C)cc2C)[C@H]1C(C)C
CCRF-CEM
  GI50: 75.9 µM (inactive)
RXF 393
  GI50: > 100 µM (inactive)
NCI/ADR-RES
  GI50: > 100 µM (inactive)
SF-539
  GI50: > 100 µM (inactive)
T47D
  GI50: 63.5 µM (inactive)
SF-268
  GI50: > 100 µM (inactive)
DU-145
  GI50: > 100 µM (inactive)
IGROV-1
  GI50: > 100 µM (inactive)
ACHN
  GI50: > 100 µM (inactive)
NCI-H226
  GI50: 27.4 µM (inactive)
SR
  GI50: 75.7 µM (inactive)
TK-10
  GI50: > 100 µM (inactive)
MCF7
  GI50: 75.9 µM (inactive)
SN12C
  GI50: > 100 µM (inactive)
HL-60
  GI50: 23.6 µM (inactive)
MDA-MB-435
  GI50: > 100 µM (inactive)
SK-MEL-2
  GI50: 95.7 µM (inactive)
K562
  GI50: > 100 µM (inactive)
786-0
  GI50: > 100 µM (inactive)

## Cc1ccc(S(=O)(=O)N/N=C2/C3C(CC2(C)C)C2(C)CCCC3(C)C2O)cc1 (stereo not given)
CCRF-CEM
  GI50: 16.8 µM (inactive)
NCI/ADR-RES
  GI50: 21.2 µM (inactive)
T47D
  GI50: 18.2 µM (inactive)
SF-268
  GI50: 30.5 µM (inactive)
DU-145
  GI50: 39.1 µM (inactive)
IGROV-1
  GI50: 25 µM (inactive)
ACHN
  GI50: > 10 µM (inactive)
NCI-H226
  GI50: 17 µM (inactive)
SR
  GI50: 20.7 µM (inactive)
TK-10
  GI50: 36 µM (inactive)
MCF7
  GI50: 17.5 µM (inactive)
SN12C
  GI50: 19.9 µM (inactive)
HL-60
  GI50: 26.1 µM (inactive)
MDA-MB-435
  GI50: > 10 µM (inactive)
SK-MEL-2
  GI50: 21 µM (inactive)
K562
  GI50: 23.9 µM (inactive)
786-0
  GI50: 21.3 µM (inactive)

## CCSC1=N/C(=C\c2ccco2)C(Cl)=N1
CCRF-CEM
  GI50: > 100 µM (inactive)
A498
  GI50: > 100 µM (inactive)
NCI/ADR-RES
  GI50: > 100 µM (inactive)
SF-539
  GI50: > 100 µM (inactive)
T47D
  GI50: > 100 µM (inactive)
SF-268
  GI50: > 100 µM (inactive)
DU-145
  GI50: > 100 µM (inactive)
IGROV-1
  GI50: > 100 µM (inactive)
ACHN
  GI50: > 100 µM (inactive)
NCI-H226
  GI50: > 100 µM (inactive)
SR
  GI50: > 100 µM (inactive)
TK-10
  GI50: > 100 µM (inactive)
MCF7
  GI50: > 100 µM (inactive)
SN12C
  GI50: > 100 µM (inactive)
HL-60
  GI50: > 100 µM (inactive)
MDA-MB-435
  GI50: > 100 µM (inactive)
SK-MEL-2
  GI50: > 100 µM (inactive)
K562
  GI50: > 100 µM (inactive)
786-0
  GI50: > 100 µM (inactive)

## COc1ccc(CCc2ccc(O)c(C(=O)O)c2)cc1OC
CCRF-CEM
  GI50: 50.7 µM (inactive)
RXF 393
  GI50: 63.5 µM (inactive)
NCI/ADR-RES
  GI50: > 100 µM (inactive)
SF-539
  GI50: 37.2 µM (inactive)
T47D
  GI50: > 100 µM (inactive)
SF-268
  GI50: > 100 µM (inactive)
DU-145
  GI50: > 100 µM (inactive)
IGROV-1
  GI50: > 100 µM (inactive)
ACHN
  GI50: > 100 µM (inactive)
NCI-H226
  GI50: > 100 µM (inactive)
SR
  GI50: > 100 µM (inactive)
TK-10
  GI50: > 100 µM (inactive)
MCF7
  GI50: > 100 µM (inactive)
SN12C
  GI50: > 100 µM (inactive)
HL-60
  GI50: > 100 µM (inactive)
MDA-MB-435
  GI50: > 100 µM (inactive)
SK-MEL-2
  GI50: > 100 µM (inactive)
K562
  GI50: 59.7 µM (inactive)
786-0
  GI50: > 100 µM (inactive)

## CN(C)CC1CCC/C(=C\c2ccc(OC(=O)c3ccc(Cl)cc3)cc2)C1=O (stereo not given)
CCRF-CEM
  GI50: 0.33 µM (active)
A498
  GI50: 7.26 µM (inactive)
NCI/ADR-RES
  GI50: 2.12 µM (inactive)
SF-539
  GI50: 3 µM (inactive)
T47D
  GI50: 0.757 µM (active)
SF-268
  GI50: 4.26 µM (inactive)
DU-145
  GI50: 2.39 µM (inactive)
IGROV-1
  GI50: 2.23 µM (inactive)
ACHN
  GI50: 3.57 µM (inactive)
NCI-H226
  GI50: 3.06 µM (inactive)
SR
  GI50: 0.583 µM (active)
TK-10
  GI50: 1.95 µM (inactive)
MCF7
  GI50: 0.33 µM (active)
SN12C
  GI50: 2.14 µM (inactive)
HL-60
  GI50: 1.32 µM (inactive)
MDA-MB-435
  GI50: 1.95 µM (inactive)
SK-MEL-2
  GI50: 4.31 µM (inactive)
K562
  GI50: 0.912 µM (active)
786-0
  GI50: 0.867 µM (active)

## CC1CC2(OC2C)C(=O)OC2CCN(C)C/C=C(/COC(=O)C1(C)O)C2=O (stereo not given)
CCRF-CEM
  GI50: > 100 µM (inactive)
RXF 393
  GI50: > 100 µM (inactive)
A498
  GI50: > 100 µM (inactive)
NCI/ADR-RES
  GI50: > 100 µM (inactive)
SF-539
  GI50: > 100 µM (inactive)
T47D
  GI50: > 100 µM (inactive)
SF-268
  GI50: > 100 µM (inactive)
DU-145
  GI50: > 100 µM (inactive)
IGROV-1
  GI50: > 100 µM (inactive)
ACHN
  GI50: > 100 µM (inactive)
TK-10
  GI50: > 100 µM (inactive)
MCF7
  GI50: > 100 µM (inactive)
SN12C
  GI50: > 100 µM (inactive)
HL-60
  GI50: > 100 µM (inactive)
MDA-MB-435
  GI50: > 100 µM (inactive)
SK-MEL-2
  GI50: > 100 µM (inactive)
K562
  GI50: > 100 µM (inactive)
786-0
  GI50: > 100 µM (inactive)
